From BindingDB's records for doi:10.7270/Q2NS0S90 (The Scripps Research Institute Molecular Screening Center, 2009) come the findings set out here.

In general, IC50 refers to the concentration that inhibits the measured activity by half.

For this assay, the target named is VIM-2 metallo β-lactamase (Pseudomonas aeruginosa, UniProt Q9K2N0). Briefly: VIM-2 CCF2 hydrolysis inhibition, assay artifact filter – biochemical, FRET readout, CCF2 substrate, artefact control for selective VIM-2 inhibitor project, dose response (AID 1926).

`O=C1C(=O)N(Cc2cccnc2)C(c2ccccn2)C1C(=O)c1cccs1` (configuration not stated) [3-hydroxy-5-(2-pyridinyl)-1-(3-pyridinylmethyl)-4-(2-thienylcarbonyl)-1,5-dihydro-2H-pyrrol-2-one] had an IC50 of 4.83 µM. Compound `COc1ccc(C(=O)C2C(=O)C(=O)N(Cc3ccco3)C2c2cc(OC)ccc2OC)cc1` (configuration not stated) [(4E)-5-(2,5-dimethoxyphenyl)-1-(2-furanylmethyl)-4-[hydroxy-(4-methoxyphenyl)methylidene]pyrrolidine-2,3-dione] came in with an IC50 of 5.61 µM. Under `COc1cc(OC)c(OC)cc1C=NNC(=O)Cc1c(C)[nH][nH]c1=O` [MLS000555854] stands 1.46 µM; under `O=C1C(=O)N(Cc2cccnc2)C(c2ccccn2)C1C(=O)c1ccccc1` (configuration not stated) [(4Z)-4-[hydroxy(phenyl)methylene]-5-(2-pyridyl)-1-(3-pyridylmethyl)pyrrolidine-2,3-quinone], 2.17 µM; under `COc1ccc(OC)c(C=NNC(=O)Cc2c(C)[nH][nH]c2=O)c1` [SMR000147372], 2.13 µM.

On to `O=C1C(=O)N(Cc2cccnc2)C(c2ccccn2)C1C(=O)c1ccc(F)cc1` (configuration not stated) [(4Z)-4-[(4-fluorophenyl)-hydroxy-methylene]-5-(2-pyridyl)-1-(3-pyridylmethyl)pyrrolidine-2,3-quinone], for which half-maximal inhibition (IC50) required 0.941 µM. `COc1ccc(OC)c(C2C(C(=O)c3ccco3)C(=O)C(=O)N2Cc2cccnc2)c1` (configuration not stated) [2-(2,5-dimethoxyphenyl)-3-(furan-2-carbonyl)-4-hydroxy-1-(pyridin-3-ylmethyl)-2H-pyrrol-5-one] registered a concentration for half-maximal inhibition (IC50) of 0.7 µM.
